{
  "source": "ChEMBL document CHEMBL3272133",
  "about": "“1-[4-(4-Chlorophenyl)-2-(2,6-dichlorophenylthio)-n-butyl]-1H-imidazole nitrate, a new potent antifungal agent” (J Med Chem, 1978)",
  "key": {"[1]": {"tested_on": "Candida albicans", "experiment": "Antifungal activity against Candida albicans infected in mouse assessed as noninfected animals at 2% formulation in neat PEG 400 solution administered vaginally bid for 4 days measured on day 7 relative to placebo", "assay_type": "functional"}, "[2]": {"tested_on": "Trichophyton mentagrophytes", "experiment": "Antifungal activity against Trichophyton mentagrophytes infected in guinea pig assessed as noninfected animals at 0.5% formulation in steryl alcohol, cetyl alcohol, Span 60, Tween 60, propylene glycol, mineral oil, and water administered qd for 5 days measured on day 4", "assay_type": "functional"}, "[3]": {"tested_on": "Candida albicans", "experiment": "Antifungal activity against Candida albicans infected in mouse assessed as noninfected animals at 4% formulation in neat PEG 400 solution administered vaginally bid for 4 days measured on day 7 relative to placebo", "assay_type": "functional"}, "[4]": {"tested_on": "Candida albicans", "experiment": "Antifungal activity against Candida albicans infected in mouse assessed as noninfected animals at 0.5% formulation in neat PEG 400 solution administered vaginally bid for 4 days measured on day 7 relative to placebo", "assay_type": "functional"}, "[5]": {"tested_on": "Candida albicans", "experiment": "Antifungal activity against mixed infection of Candida albicans infected in mouse assessed as noninfected animals at 1% formulation administered vaginally bid for 4 days measured on day 7 relative to placebo", "assay_type": "functional"}, "[6]": {"tested_on": "Enterococcus faecalis", "experiment": "Antibacterial activity against Streptococcus faecalis No. 8043-2 assessed as growth inhibition by broth microdilution method", "assay_type": "functional"}, "[7]": {"tested_on": "Candida albicans", "experiment": "Antifungal activity against Candida albicans infected in mouse assessed as noninfected animals at 2% formulation in modified PEG 400 solution administered vaginally bid for 4 days measured on day 7 relative to placebo", "assay_type": "functional, organism-based"}, "[8]": {"tested_on": "Staphylococcus aureus", "experiment": "Antibacterial activity against Staphylococcus aureus No. 14154 assessed as growth inhibition by broth microdilution method", "assay_type": "functional"}, "[9]": {"experiment": "Antifungal activity against Trichophyton concentricum assessed as growth inhibition by agar dilution method", "assay_type": "functional"}, "[10]": {"tested_on": "Candida albicans", "experiment": "Antifungal activity against mixed infection of Candida albicans infected in mouse assessed as noninfected animals at 2% formulation administered vaginally bid for 4 days measured on day 7 relative to placebo", "assay_type": "functional"}, "[11]": {"tested_on": "Candida albicans", "experiment": "Antifungal activity against mixed infection of Candida albicans infected in mouse assessed as noninfected animals at 0.5% formulation administered vaginally bid for 4 days measured on day 7 relative to placebo", "assay_type": "functional"}, "[12]": {"tested_on": "Cryptococcus neoformans", "experiment": "Antifungal activity against Cryptococcus neoformans assessed as growth inhibition by broth dilution method", "assay_type": "functional"}, "[13]": {"tested_on": "Trichophyton mentagrophytes", "experiment": "Antifungal activity against Trichophyton mentagrophytes infected in guinea pig assessed as noninfected animals at 0.5% formulation in steryl alcohol, cetyl alcohol, Span 60, Tween 60, propylene glycol, mineral oil, and water administered qd for 5 days measured on day 14", "assay_type": "functional"}, "[14]": {"tested_on": "Candida albicans", "experiment": "Antifungal activity against Candida albicans infected in mouse assessed as noninfected animals at 4% formulation in neat PEG 400 solution administered vaginally bid for 4 days measured 6 hrs post last dose relative to placebo", "assay_type": "functional"}, "[15]": {"tested_on": "Streptococcus pyogenes", "experiment": "Antibacterial activity against Streptococcus pyogenes No. 8668 assessed as growth inhibition by broth microdilution method", "assay_type": "functional"}, "[16]": {"tested_on": "Candida albicans", "experiment": "Antifungal activity against mixed infection of Candida albicans infected in mouse assessed as noninfected animals at 0.5% formulation administered vaginally bid for 4 days measured 6 hrs post last dose relative to placebo", "assay_type": "functional"}, "[17]": {"tested_on": "Candida albicans", "experiment": "Antifungal activity against mixed infection of Candida albicans infected in mouse assessed as noninfected animals at 1% formulation administered vaginally bid for 4 days measured 6 hrs post last dose relative to placebo", "assay_type": "functional"}, "[18]": {"tested_on": "Candida albicans", "experiment": "Antifungal activity against Candida albicans infected in mouse assessed as noninfected animals at 2% formulation in neat PEG 400 solution administered vaginally bid for 4 days measured 6 hrs post last dose relative to placebo", "assay_type": "functional"}, "[19]": {"tested_on": "Candida albicans", "experiment": "Antifungal activity against Candida albicans infected in mouse assessed as noninfected animals at 1% formulation in neat PEG 400 solution administered vaginally bid for 4 days measured on day 7 relative to placebo", "assay_type": "functional"}, "[20]": {"tested_on": "Candida albicans", "experiment": "Antifungal activity against mixed infection of Candida albicans infected in mouse assessed as noninfected animals at 0.2% formulation administered vaginally bid for 4 days measured on day 7 relative to placebo", "assay_type": "functional"}, "[21]": {"tested_on": "Trichophyton mentagrophytes", "experiment": "Antifungal activity against Trichophyton mentagrophytes assessed as growth inhibition by agar dilution method", "assay_type": "functional"}, "[22]": {"tested_on": "Staphylococcus aureus", "experiment": "Antibacterial activity against Staphylococcus aureus No. 6538 P assessed as growth inhibition by broth microdilution method", "assay_type": "functional"}, "[23]": {"tested_on": "Candida albicans", "experiment": "Antifungal activity against Candida albicans ATCC 10231 assessed as growth inhibition by broth dilution method", "assay_type": "functional"}, "[24]": {"tested_on": "Candida albicans", "experiment": "Antifungal activity against mixed infection of Candida albicans infected in mouse assessed as noninfected animals at 0.2% formulation administered vaginally bid for 4 days measured 6 hrs post last dose relative to placebo", "assay_type": "functional"}, "[25]": {"tested_on": "Nannizzia gypsea", "experiment": "Antifungal activity against Microsporum gypseum assessed as growth inhibition by agar dilution method", "assay_type": "functional"}, "[26]": {"tested_on": "Candida albicans", "experiment": "Antifungal activity against Candida albicans ATCC 14053 assessed as growth inhibition by broth dilution method", "assay_type": "functional"}, "[27]": {"tested_on": "Candida albicans", "experiment": "Antifungal activity against Candida albicans infected in mouse assessed as noninfected animals at 1% formulation in neat PEG 400 solution administered vaginally bid for 4 days measured 6 hrs post last dose relative to placebo", "assay_type": "functional"}, "[28]": {"tested_on": "Trichophyton mentagrophytes", "experiment": "Antifungal activity against Trichophyton mentagrophytes infected in guinea pig assessed as noninfected animals at 0.5% formulation in steryl alcohol, cetyl alcohol, Span 60, Tween 60, propylene glycol, mineral oil, and water administered qd for 5 days measured on day 7", "assay_type": "functional"}, "[29]": {"tested_on": "Epidermophyton floccosum", "experiment": "Antifungal activity against Epidermophyton floccosum assessed as growth inhibition by agar dilution method", "assay_type": "functional"}, "[30]": {"tested_on": "Candida albicans", "experiment": "Antifungal activity against mixed infection of Candida albicans infected in mouse assessed as noninfected animals at 2% formulation administered vaginally bid for 4 days measured 6 hrs post last dose relative to placebo", "assay_type": "functional"}, "[31]": {"tested_on": "Trichophyton rubrum", "experiment": "Antifungal activity against Trichophyton rubrum assessed as growth inhibition by agar dilution method", "assay_type": "functional"}, "[32]": {"tested_on": "Candida albicans", "experiment": "Antifungal activity against Candida albicans infected in mouse assessed as noninfected animals at 0.5% formulation in neat PEG 400 solution administered vaginally bid for 4 days measured 6 hrs post last dose relative to placebo", "assay_type": "functional"}, "[33]": {"tested_on": "Trichophyton tonsurans", "experiment": "Antifungal activity against Trichophyton tonsurans assessed as growth inhibition by agar dilution method", "assay_type": "functional"}, "[34]": {"tested_on": "Microsporum canis", "experiment": "Antifungal activity against Microsporum canis assessed as growth inhibition by agar dilution method", "assay_type": "functional"}, "[35]": {"tested_on": "Candida albicans", "experiment": "Antifungal activity against mixed infection of Candida albicans infected in mouse assessed as noninfected animals at 2% commercial cream formulation administered vaginally bid for 4 days measured on day 7 relative to placebo", "assay_type": "functional"}, "[36]": {"tested_on": "Candida albicans", "experiment": "Antifungal activity against mixed infection of Candida albicans infected in mouse assessed as noninfected animals at 2% commercial cream formulation administered vaginally bid for 4 days measured 6 hrs post last dose relative to placebo", "assay_type": "functional"}},
  "note": "Calls of active or inactive are those of the source. The calls are words filed in the database; no cut-off is given here.",
  "data": [
    {"smiles": "Clc1ccc(COC(Cn2ccnc2)c2ccc(Cl)cc2Cl)c(Cl)c1", "note": "(stereo not drawn) [MICONAZOLE]", "values": [
      {"measurement": "Activity", "setting": "[1]", "result": 37, "unit": "%"},
      {"measurement": "Activity", "setting": "[2]", "result": 70, "unit": "%"},
      {"measurement": "Activity", "setting": "[3]", "result": 70, "unit": "%"},
      {"measurement": "Activity", "setting": "[4]", "result": 25, "unit": "%"},
      {"measurement": "Activity", "setting": "[5]", "result": 25, "unit": "%"},
      {"measurement": "GI", "setting": "[6]", "result": 3.12, "unit": "µg/mL"},
      {"measurement": "Activity", "setting": "[7]", "result": "inactive"},
      {"measurement": "GI", "setting": "[8]", "result": 12.5, "unit": "µg/mL"},
      {"measurement": "GI", "setting": "[9]", "result": 0.5, "unit": "µg/mL"},
      {"measurement": "Activity", "setting": "[10]", "result": 15, "unit": "%"},
      {"measurement": "Activity", "setting": "[11]", "result": 11, "unit": "%"},
      {"measurement": "GI", "setting": "[12]", "result": "<=0.3 ug ml-1"},
      {"measurement": "Activity", "setting": "[13]", "result": 10, "unit": "%"},
      {"measurement": "Activity", "setting": "[14]", "result": 75, "unit": "%"},
      {"measurement": "GI", "setting": "[15]", "result": "<=0.0008 ug ml-1"},
      {"measurement": "Activity", "setting": "[16]", "result": 20, "unit": "%"},
      {"measurement": "Activity", "setting": "[17]", "result": 20, "unit": "%"},
      {"measurement": "Activity", "setting": "[18]", "result": 50, "unit": "%"},
      {"measurement": "Activity", "setting": "[19]", "result": 25, "unit": "%"},
      {"measurement": "Activity", "setting": "[20]", "result": 20, "unit": "%"},
      {"measurement": "GI", "setting": "[21]", "result": 0.5, "unit": "µg/mL"},
      {"measurement": "GI", "setting": "[22]", "result": 6.25, "unit": "µg/mL"},
      {"measurement": "GI", "setting": "[23]", "result": 30, "unit": "µg/mL"},
      {"measurement": "Activity", "setting": "[24]", "result": 15, "unit": "%"},
      {"measurement": "GI", "setting": "[25]", "result": 0.05, "unit": "µg/mL"},
      {"measurement": "GI", "setting": "[26]", "result": 30, "unit": "µg/mL"},
      {"measurement": "Activity", "setting": "[27]", "result": 60, "unit": "%"},
      {"measurement": "Activity", "setting": "[28]", "result": 80, "unit": "%"},
      {"measurement": "GI", "setting": "[29]", "result": 5, "unit": "µg/mL"},
      {"measurement": "Activity", "setting": "[30]", "result": 10, "unit": "%"},
      {"measurement": "GI", "setting": "[31]", "result": 0.5, "unit": "µg/mL"},
      {"measurement": "Activity", "setting": "[32]", "result": 30, "unit": "%"},
      {"measurement": "GI", "setting": "[33]", "result": 0.5, "unit": "µg/mL"},
      {"measurement": "GI", "setting": "[34]", "result": 0.5, "unit": "µg/mL"},
      {"measurement": "Activity", "setting": "[35]", "result": 25, "unit": "%"},
      {"measurement": "Activity", "setting": "[36]", "result": 33, "unit": "%"}
    ]},
    {"smiles": "Clc1ccccc1C(c1ccccc1)(c1ccccc1)n1ccnc1", "note": "[CLOTRIMAZOLE]", "values": [
      {"measurement": "Activity", "setting": "[19]", "result": 55, "unit": "%"},
      {"measurement": "Activity", "setting": "[27]", "result": 85, "unit": "%"}
    ]}
  ]
}
